In patent publication US20190055212A1, “HISTONE DEMETHYLASE INHIBITORS” (priority 2016, published 2019) one finds IC50 data, which are given here for 39 molecules.

Broadly, the IC50 is the midpoint of a concentration-inhibition curve.

KDM5B enzyme, sequence (Q9UGL1 whole entry): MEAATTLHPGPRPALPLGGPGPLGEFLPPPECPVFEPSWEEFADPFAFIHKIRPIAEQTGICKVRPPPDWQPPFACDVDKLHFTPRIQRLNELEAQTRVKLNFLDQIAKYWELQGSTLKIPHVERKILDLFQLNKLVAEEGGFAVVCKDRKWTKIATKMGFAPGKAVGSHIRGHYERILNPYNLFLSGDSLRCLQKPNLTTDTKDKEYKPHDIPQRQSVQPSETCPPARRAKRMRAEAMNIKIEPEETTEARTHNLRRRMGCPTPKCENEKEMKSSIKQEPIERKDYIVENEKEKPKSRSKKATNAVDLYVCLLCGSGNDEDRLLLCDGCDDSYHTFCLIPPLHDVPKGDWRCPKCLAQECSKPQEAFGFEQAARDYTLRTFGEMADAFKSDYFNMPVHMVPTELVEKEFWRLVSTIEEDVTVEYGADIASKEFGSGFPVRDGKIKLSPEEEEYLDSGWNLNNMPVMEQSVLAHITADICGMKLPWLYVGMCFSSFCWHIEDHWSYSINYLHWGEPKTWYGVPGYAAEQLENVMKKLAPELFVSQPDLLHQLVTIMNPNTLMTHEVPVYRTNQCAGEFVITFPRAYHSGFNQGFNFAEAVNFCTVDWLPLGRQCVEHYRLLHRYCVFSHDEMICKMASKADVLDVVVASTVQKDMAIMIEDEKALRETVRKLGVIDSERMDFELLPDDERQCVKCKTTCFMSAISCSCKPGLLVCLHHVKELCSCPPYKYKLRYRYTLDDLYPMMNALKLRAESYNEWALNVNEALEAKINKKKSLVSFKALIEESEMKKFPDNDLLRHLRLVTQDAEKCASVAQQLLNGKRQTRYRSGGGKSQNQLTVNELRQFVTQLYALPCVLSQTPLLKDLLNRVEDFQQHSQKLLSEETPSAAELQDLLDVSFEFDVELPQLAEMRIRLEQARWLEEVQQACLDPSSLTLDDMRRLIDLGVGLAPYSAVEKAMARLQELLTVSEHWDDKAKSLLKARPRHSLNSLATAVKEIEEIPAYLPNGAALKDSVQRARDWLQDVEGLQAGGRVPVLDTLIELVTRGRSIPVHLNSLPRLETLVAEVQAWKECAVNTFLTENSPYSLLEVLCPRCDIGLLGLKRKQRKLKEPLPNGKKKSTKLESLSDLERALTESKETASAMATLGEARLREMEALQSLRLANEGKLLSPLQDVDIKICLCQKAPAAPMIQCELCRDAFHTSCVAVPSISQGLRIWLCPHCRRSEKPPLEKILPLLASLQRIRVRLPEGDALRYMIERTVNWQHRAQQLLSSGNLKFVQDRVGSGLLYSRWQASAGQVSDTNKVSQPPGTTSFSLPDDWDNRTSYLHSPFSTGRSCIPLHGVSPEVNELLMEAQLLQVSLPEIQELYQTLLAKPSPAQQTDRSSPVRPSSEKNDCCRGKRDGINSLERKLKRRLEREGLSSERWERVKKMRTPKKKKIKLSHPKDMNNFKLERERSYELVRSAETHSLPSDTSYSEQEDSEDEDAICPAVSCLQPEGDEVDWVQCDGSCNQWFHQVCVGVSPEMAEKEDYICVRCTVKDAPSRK

This assay concerns the target KDM5B enzyme (Homo sapiens, UniProt Q9UGL1). Briefly: KDM5B HTRF (TR-FRET) demethylase inhibition assay. It counts as biochemical. The note with it: 1.2 nM KDM5B, 30 nM Biotin-H3K4Me3 1-21 substrate, 10 point dose-response. As to the method: Ten point dose-response curves for compounds shown in Table 1 were determined using a homogeneous time resolved fluorescence (HTRF) assay (Reaction Biology Corp, Malvern, Pa.). This assay combines fluorescence resonance energy transfer (FRET) with time resolve (TR) measurements (TR-FRET). The KDM5B α-ketoglutarate-dependent demethylase activity is calculated by measuring demethylation of a biotin labeled histone tri-methylated H3K4 substrate using an europium-cryptate (Eu)-labeled antibody donor specific for dimethylated histone H3K4 and a Streptavidin-XL665 acceptor that binds to the biotin group of substrate, and detecting FRET by exciting the reaction mixture at 320 nm and reading dual emissions at 615 nm and 665 nm.
Briefly, compounds disclosed herein were solubilized in DMSO and a series of 10, three-fold serial dilutions were made for each compound in 100% DMSO. The initial starting concentration for the serial dilutions of each compound was 10 μM or 100 μM. Control samples lacking compound, KDM5B enzyme or various reaction components also were prepared and processed in parallel with compound test samples.
An aliquot of each serial dilution of test compound was added to a 384 well plate (Corning Cat #3572) containing 1.2 nM KDM5B enzyme suspended in 50 mM Hepes, pH7.5, 50 mM NaCl, 0.01% Tween 20, 0.1% BSA, and 1% DMSO (final concentrations) in a 10 microliter reaction volume using a LABCYTE ECHO liquid handler. The samples were mixed, subjected to centrifugation and the plate was pre-incubated at room temperature for 15 min, to which 30 nM Biotin-H3K4Me3 1-21 substrate (Anaspec Cat #64192), 20 μM […] and 20 μM α-ketoglutarate co-factors, and 100 μM Ascorbate were added to initiate the enzymatic reaction. The reaction mixture was incubated at room temperature for 45 minutes. A 10 μl aliquot of a detection mixture of Eu-labeled anti-histone H3K4Me2 antibody (CisBIO Cat #610AXLB) and Streptavidin-XL665 (CisBIO Cat #610 SAXLB) in 200 mM potassium fluoride and 10 mM EDTA was added and kinetic measurements were read at 5 minute intervals for a period of 30 minutes using an Envision Multiplate Reader (PerkinElmer Model 2102; excitation at 320 nm and emmission reads at 615 nm and 665 nm). The IC50 value for each compound was determined from the 665/615 ratio obtained for each 10 point dose-response curve using GraphPad Prism 4 software with a sigmodial dose response. Key: “A”≤100 nM; “B”>100 nM-≤500 nM; “C”>500 nM and N/D is not determined.
On the technique in general: TR-FRET usually uses a lanthanide donor and a delayed reading to cut background.
On to `Cc1ccc(-n2ccnc2-c2cc(C(=O)O)ccn2)cc1` [Example 16], for which the IC50 lay within 100 to 500 nM.
Then `COc1ccc(-n2c(-c3cc(C(=O)O)ccn3)nc3ccccc32)cc1` [Example 4], with no more than 100 nM; and `O=C(O)c1ccnc(-c2ncc(CN(CCO)Cc3ccccc3)n2CCc2ccc(F)cc2)c1` [Example 70], with 100 to 500 nM.
Molecule `O=C(O)c1ccnc(-c2nccn2CCc2ccc(Cl)cc2)c1` [Example 8] showed an IC50 greater than 500 nM.
Then `O=C(O)c1ccnc(-c2nc3ccccc3n2CC2CCOc3ccccc32)c1` (stereo not drawn) [Example 29], with no more than 100 nM; and `CN1CCN(Cc2cnc(-c3cc(C(=O)O)ccn3)n2CCc2ccc(F)cc2)C(c2ccccc2)C1` (stereo not drawn) [Example 72], with no more than 100 nM.
Then `Cc1cc(Cl)ccc1CCn1ccnc1-c1cc(C(=O)O)ccn1` [Example 7], with 100 to 500 nM.
With `CN(Cc1ccccn1)Cc1cnc(-c2cc(C(=O)O)ccn2)n1CCc1ccc(F)cc1` [Example 62] the figure was 100 to 500 nM; with `COc1ccc(N(C)c2ccc3c(c2)OCCC3Cn2c(-c3cc(C(=O)O)ccn3)nc3ccccc32)cc1` (stereo not drawn) [Example 90], greater than 500 nM; with `COc1cc(C)ccc1CCn1ccnc1-c1cc(C(=O)O)ccn1` [Example 5], greater than 500 nM.
In the case of `COc1ccc(CCn2c(-c3cc(C(=O)O)ccn3)nc3ccccc32)cc1` [Example 3], the IC50 was 100 to 500 nM.
With `O=C(O)c1ccnc(-c2ncc(CN3CCN(CCCOc4ccccc4)CC3)n2CCc2ccc(F)cc2)c1` [Example 76] the figure was no more than 100 nM; with `CCc1ccc(N(C)c2ccc3c(c2)OCCC3Cn2ccnc2-c2cc(C(=O)O)ccn2)cc1` (stereo not drawn) [Example 42], 100 to 500 nM.
With `O=C(O)c1ccnc(-c2ncc(CN3CCCN(c4ccccc4)CC3)n2CCc2ccc(F)cc2)c1` [Example 82] the figure was no more than 100 nM; with `O=C(O)c1ccnc(-c2ncc(-c3ccccn3)n2CCc2ccc(Cl)cc2)c1` [Example 31], 100 to 500 nM.
Then `O=C(O)c1ccnc(-c2ncc(CN3CCC(OC4CCCCC4)CC3)n2CCc2ccc(F)cc2)c1` [Example 74], with no more than 100 nM; and `COc1cc(Cl)ccc1CCn1ccnc1-c1cc(C(=O)O)ccn1` [Example 6], with 100 to 500 nM.
On to `CN(CCc1cnc(-c2cc(C(=O)O)ccn2)n1CCc1ccc(F)cc1)Cc1ccc(Cl)cc1` [Example 47], for which the half-maximal inhibitory concentration (IC50) was no more than 100 nM.
On to `CN1CCN(Cc2cnc(-c3cc(C(=O)O)ccn3)n2C)C(c2ccccc2)C1` (stereo not drawn) [Example 101], for which the IC50 is no more than 100 nM.
With `N#Cc1ccccc1Cn1ccnc1-c1cc(C(=O)O)ccn1` [Example 9] the figure was 100 to 500 nM; with `CCc1ccc(N(C)c2ccc3c(c2)OCCC3Cn2c(-c3cc(C(=O)O)ccn3)nc3ccccc32)cc1` (stereo not drawn) [Example 88], greater than 500 nM.
With `CN(Cc1ccc(F)cc1)Cc1ccc2nc(-c3cc(C(=O)O)ccn3)n(CCc3ccc(F)cc3)c2c1` [Example 28] the figure was 100 to 500 nM; with `COc1ccc(N(C)c2ccc(Cn3ccnc3-c3cc(C(=O)O)ccn3)cc2)cc1` [Example 36], greater than 500 nM.
With `CN(Cc1ccc(N2CCOCC2)cc1)Cc1cnc(-c2cc(C(=O)O)ccn2)n1CCc1ccc(F)cc1` [Example 66] the figure was 100 to 500 nM; with `O=C(O)c1ccnc(-c2nc3ccccc3n2Cc2ccc(Cl)cc2)c1` [Example 1], 100 to 500 nM; with `O=C(O)c1ccnc(-c2ncc(CCN3CCC(c4cc(Cl)cc(Cl)c4)CC3)n2CCc2ccc(F)cc2)c1` [Example 51], no more than 100 nM.
The molecule `CNC(=O)c1cnc(-c2cc(C(=O)O)ccn2)n1CCc1ccc(Cl)cc1` [Example 15] displayed an IC50 of no more than 100 nM.
With `O=C(O)c1ccnc(-c2ncc(CN3CCc4c([nH]c5ccccc45)C3)n2CCc2ccc(F)cc2)c1` [Example 86] the figure was no more than 100 nM; with `CCN1CCN(c2ccc(Cn3ccnc3-c3cc(C(=O)O)ccn3)c3c2CCCC3)CC1` [Example 11], greater than 500 nM.
With `Cn1cc(-c2ccccn2)nc1-c1cc(C(=O)O)ccn1` [Example 13] the figure was greater than 500 nM; with `Cn1c(-c2ccccn2)cnc1-c1cc(C(=O)O)ccn1` [Example 12], no more than 100 nM; with `O=C(O)c1ccnc(-c2ncc(CO)n2CCc2ccc(Cl)cc2)c1` [Example 14], 100 to 500 nM.
Then `COc1cc(CN2CCC(NCCc3ccccc3)CC2)ccc1Cn1ccnc1-c1cc(C(=O)O)ccn1` [Example 54], with 100 to 500 nM; and `COc1ccc(Cn2c(-c3cc(C(=O)O)ccn3)nc3ccccc32)cc1` [Example 2], with no more than 100 nM.
As to `O=C(O)c1ccnc(-c2nccn2Cc2ccc(Cl)cc2)c1` [Example 10], the IC50 lay within 100 to 500 nM.
With `CN(Cc1cnc(-c2cc(C(=O)O)ccn2)n1CCc1ccc(F)cc1)C1CCN(Cc2ccccc2)CC1` [Example 68] the figure was no more than 100 nM.
With `Cn1c(CN2CCN(Cc3ccc(C(F)(F)F)cc3)CC2)cnc1-c1cc(C(=O)O)ccn1` [Example 107] the figure was no more than 100 nM.
With `O=C(O)c1ccnc(-c2ncc(CN3CCN(Cc4ccc(C(F)(F)F)cc4)CC3)n2CCc2ccc(F)cc2)c1` [Example 78] the figure was no more than 100 nM.
On to `O=C(O)c1ccnc(-c2ncc(-c3ccccn3)n2Cc2ccc(Oc3ccccc3)cc2)c1` [Example 34], for which the IC50 lay within 100 to 500 nM.
